Measured values reported in paper PMC5290327, “SC83288 is a clinical development candidate for the treatment of severe malaria” (Nature Communications, 2017).
≈ marks a conversion by molar mass, not a printed value.

Key:
CB1 (h) = target: T1, CB1 (h) (Homo sapiens, UniProt P21554); test: Radioligand binding
T1 construct: Cerep (contract study)

[1] = system: cytoplasmic free Ca2+ in P. falciparum HB3 trophozoites; test: Ca2+ live imaging, Fluo-4; settings: SC compounds 10 and 20 μM; CPA 10 μM
GABA (non-selective) = test: Radioligand binding
ETA (h) = target: T2, ETA (h) (Homo sapiens, UniProt P25101); test: Radioligand binding
T2 construct: Cerep
T2 sequence (P25101 21-427): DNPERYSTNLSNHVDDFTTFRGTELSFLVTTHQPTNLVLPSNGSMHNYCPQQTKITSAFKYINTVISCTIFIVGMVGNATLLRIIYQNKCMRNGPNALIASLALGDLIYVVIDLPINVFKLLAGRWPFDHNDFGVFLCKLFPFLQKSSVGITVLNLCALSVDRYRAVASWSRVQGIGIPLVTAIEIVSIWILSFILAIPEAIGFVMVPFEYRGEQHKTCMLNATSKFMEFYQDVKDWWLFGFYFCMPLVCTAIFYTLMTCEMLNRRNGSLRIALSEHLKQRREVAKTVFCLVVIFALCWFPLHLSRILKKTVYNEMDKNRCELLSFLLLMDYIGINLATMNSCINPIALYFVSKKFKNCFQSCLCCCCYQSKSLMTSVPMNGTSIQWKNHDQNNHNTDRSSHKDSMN

CCR1 (h) = target: T3, CCR1 (h) (Homo sapiens, UniProt P32246); test: Radioligand binding
T3 construct: Cerep
T3 sequence (P32246 1-355): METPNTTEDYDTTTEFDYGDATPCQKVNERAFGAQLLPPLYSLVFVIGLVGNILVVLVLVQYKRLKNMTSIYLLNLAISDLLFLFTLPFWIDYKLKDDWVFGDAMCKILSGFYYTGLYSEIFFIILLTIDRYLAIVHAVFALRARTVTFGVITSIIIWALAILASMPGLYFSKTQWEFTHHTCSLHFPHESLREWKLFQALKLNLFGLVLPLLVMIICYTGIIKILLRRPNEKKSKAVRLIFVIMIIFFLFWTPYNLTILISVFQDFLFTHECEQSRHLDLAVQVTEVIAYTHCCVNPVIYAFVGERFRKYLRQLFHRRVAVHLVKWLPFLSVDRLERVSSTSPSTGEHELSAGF

5-HT2A (h) = target: T4, 5-HT2A (h) (Homo sapiens, UniProt P28223); test: Radioligand binding
T4 construct: Cerep (contract screening)
T4 sequence (P28223 whole entry): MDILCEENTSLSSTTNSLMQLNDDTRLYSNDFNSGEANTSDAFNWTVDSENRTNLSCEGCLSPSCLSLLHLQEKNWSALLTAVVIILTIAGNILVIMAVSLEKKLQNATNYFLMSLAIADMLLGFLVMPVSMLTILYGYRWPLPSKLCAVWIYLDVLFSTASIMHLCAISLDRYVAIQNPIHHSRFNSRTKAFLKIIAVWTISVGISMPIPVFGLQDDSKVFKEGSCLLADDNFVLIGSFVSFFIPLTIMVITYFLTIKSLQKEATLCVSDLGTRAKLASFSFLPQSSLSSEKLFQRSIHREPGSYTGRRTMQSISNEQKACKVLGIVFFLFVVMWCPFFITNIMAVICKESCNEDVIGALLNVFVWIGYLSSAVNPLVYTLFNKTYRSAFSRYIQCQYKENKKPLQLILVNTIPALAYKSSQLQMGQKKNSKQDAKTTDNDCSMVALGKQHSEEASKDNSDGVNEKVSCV

AT1 (h) = target: T5, AT1 (h) (Homo sapiens, UniProt P30556); test: Radioligand binding
T5 construct: Cerep (contract study)
T5 sequence (P30556 whole entry): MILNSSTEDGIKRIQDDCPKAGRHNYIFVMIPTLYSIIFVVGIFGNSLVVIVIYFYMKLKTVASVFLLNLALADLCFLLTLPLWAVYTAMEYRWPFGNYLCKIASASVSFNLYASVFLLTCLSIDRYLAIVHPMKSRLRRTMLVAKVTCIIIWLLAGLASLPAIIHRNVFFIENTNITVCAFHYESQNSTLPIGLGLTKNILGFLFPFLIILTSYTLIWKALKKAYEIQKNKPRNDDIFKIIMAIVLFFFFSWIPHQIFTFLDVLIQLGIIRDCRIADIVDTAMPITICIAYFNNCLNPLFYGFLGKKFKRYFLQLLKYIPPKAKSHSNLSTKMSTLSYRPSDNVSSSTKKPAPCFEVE

5-HT5a (h) = target: T6, 5-HT5a (h) (Homo sapiens, UniProt P47898); test: Radioligand binding
T6 construct: Cerep (contract screening)

P. falciparum strain K1 = test: microbe, parasite or virus in culture; type: cell-based; settings: Plasmodium falciparum
[2] = In vitro micronucleus assay; settings: 60 μM
CYP3A4 = CYP3A4 (Homo sapiens, UniProt P08684); test: CYP inhibition, human liver microsomes; settings: 10 µM
Sequence of CYP3A4 (P08684 whole entry): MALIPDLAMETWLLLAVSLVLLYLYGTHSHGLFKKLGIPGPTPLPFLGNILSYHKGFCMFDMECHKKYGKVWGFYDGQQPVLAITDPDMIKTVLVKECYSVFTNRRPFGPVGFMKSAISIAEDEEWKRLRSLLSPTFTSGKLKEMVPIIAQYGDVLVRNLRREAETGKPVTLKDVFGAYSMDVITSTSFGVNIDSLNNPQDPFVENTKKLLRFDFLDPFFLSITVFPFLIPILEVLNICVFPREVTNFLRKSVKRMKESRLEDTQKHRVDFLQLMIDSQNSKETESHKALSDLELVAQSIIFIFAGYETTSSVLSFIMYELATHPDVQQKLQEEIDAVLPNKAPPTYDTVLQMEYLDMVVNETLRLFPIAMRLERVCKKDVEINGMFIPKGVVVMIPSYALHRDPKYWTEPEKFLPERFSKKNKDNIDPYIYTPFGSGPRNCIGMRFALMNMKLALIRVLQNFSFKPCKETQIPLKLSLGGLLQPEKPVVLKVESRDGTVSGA

Permeability assay = type: in vitro ADME; settings: human; CACO 2 cells, 10 μM, apical side, 2 h
Description: The study was conducted by Cyprotex (Macclesfield, United Kingdom). CACO 2 cells (Sigma-Aldrich, catalogue: 86010202) were seeded on Millipore Millicell plates and formed a confluent monolayer over 20 days before the experiment. On day 20, the tested compounds at a final concentration of 10 μM were added to the apical side of the membrane. The transport of the compound across the monolayer was monitored over a 2 h period by liquid chromatography (LC)–MS/MS quantification. The permeability coefficient (Papp) was calculated from the following equation: [drawing 1] , where dQ/dt is the rate of permeation of the drug across the cells, C0 the donor compartment concentration at time zero and A the area of the cell monolayer. C0 was obtained from analysis of the dosing solution at the start of the experiment.

CYP2A6 = CYP2A6 (Homo sapiens, UniProt P11509); test: CYP inhibition, human liver microsomes; settings: CYP2A6, coumarin to 7-OH-coumarin, 10 µM
A2A (h) = target: T7, A2A (h) (Homo sapiens, UniProt P29274); test: Radioligand binding
T7 construct: Cerep (contract study)

[3] = system: P. falciparum strain FCR3; test: Growth inhibition assay; type: cell-based; settings: Plasmodium falciparum
H1 (h) = target: T8, H1 (h) (Homo sapiens, UniProt P35367); type: binding
T8 construct: Cerep
T8 sequence (P35367 whole entry): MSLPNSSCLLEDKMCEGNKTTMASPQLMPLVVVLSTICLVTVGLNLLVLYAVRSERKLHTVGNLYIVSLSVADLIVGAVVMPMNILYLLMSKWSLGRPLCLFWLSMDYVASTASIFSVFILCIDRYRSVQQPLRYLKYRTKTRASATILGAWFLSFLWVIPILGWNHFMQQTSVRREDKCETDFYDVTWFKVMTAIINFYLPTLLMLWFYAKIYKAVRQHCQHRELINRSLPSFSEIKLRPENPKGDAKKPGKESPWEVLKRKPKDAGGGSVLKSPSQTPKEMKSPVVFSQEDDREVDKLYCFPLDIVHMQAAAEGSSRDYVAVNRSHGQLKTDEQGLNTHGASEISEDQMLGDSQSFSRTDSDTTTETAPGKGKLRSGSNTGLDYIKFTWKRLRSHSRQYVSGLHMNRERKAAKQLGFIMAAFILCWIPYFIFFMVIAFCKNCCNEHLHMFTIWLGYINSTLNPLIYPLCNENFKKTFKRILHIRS

VPAC1 (VIP1) (h) = target: T9, VPAC1 (VIP1) (h) (Homo sapiens, UniProt P32241); test: Radioligand binding
T9 construct: Cerep (contract screening)

CYP2E1 = CYP2E1 (Homo sapiens, UniProt P05181); test: CYP inhibition, human liver microsomes; settings: for Remaining enzyme activity: CYP2E1, chlorzoxazone to 6-OH-chlorzoxazone, 10 µM
Sequence of CYP2E1 (P05181 whole entry): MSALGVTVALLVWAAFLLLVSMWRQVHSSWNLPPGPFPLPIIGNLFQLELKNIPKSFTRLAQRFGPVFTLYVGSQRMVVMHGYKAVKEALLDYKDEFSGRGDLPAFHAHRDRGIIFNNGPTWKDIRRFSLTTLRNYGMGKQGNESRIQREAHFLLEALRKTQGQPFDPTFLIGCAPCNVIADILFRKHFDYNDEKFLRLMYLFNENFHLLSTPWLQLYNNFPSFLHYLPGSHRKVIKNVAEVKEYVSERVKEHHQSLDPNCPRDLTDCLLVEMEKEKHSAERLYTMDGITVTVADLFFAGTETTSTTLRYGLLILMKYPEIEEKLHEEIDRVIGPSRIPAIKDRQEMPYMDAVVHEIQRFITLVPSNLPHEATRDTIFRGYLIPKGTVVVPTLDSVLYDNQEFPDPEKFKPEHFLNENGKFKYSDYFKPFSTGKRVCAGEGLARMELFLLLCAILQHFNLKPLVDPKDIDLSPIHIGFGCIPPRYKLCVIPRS

m (MOP) (h) = target: T10, m (MOP) (h) (Homo sapiens, UniProt P35372); test: Radioligand binding
T10 construct: Cerep
T10 sequence (P35372 whole entry): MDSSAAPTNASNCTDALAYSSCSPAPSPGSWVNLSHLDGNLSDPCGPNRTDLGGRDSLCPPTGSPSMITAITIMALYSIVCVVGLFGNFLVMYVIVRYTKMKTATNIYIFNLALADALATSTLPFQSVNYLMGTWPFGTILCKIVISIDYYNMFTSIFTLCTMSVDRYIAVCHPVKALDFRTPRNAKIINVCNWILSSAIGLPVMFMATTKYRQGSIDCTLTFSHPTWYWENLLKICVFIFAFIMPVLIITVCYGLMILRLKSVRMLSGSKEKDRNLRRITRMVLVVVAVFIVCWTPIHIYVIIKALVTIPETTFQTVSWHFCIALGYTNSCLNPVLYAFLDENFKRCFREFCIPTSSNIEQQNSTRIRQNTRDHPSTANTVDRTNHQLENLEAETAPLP

b1 (h) = target: T11, b1 (h) (Homo sapiens, UniProt P08588); test: Radioligand binding
T11 construct: Cerep (contract study)
T11 sequence (P08588 whole entry): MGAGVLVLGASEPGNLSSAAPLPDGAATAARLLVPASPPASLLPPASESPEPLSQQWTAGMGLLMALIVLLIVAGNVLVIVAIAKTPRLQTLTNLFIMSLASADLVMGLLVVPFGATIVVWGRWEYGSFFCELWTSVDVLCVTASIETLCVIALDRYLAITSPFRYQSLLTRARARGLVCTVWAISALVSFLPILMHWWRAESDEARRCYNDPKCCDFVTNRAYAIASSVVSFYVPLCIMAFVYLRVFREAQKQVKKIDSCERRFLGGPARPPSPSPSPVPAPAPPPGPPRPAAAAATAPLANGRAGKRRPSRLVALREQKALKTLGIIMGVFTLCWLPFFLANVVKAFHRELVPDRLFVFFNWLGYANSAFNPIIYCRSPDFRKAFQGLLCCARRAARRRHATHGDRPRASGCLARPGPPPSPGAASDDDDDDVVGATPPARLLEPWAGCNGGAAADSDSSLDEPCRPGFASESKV

CYP2C19 = CYP2C19 (Homo sapiens, UniProt P33261); test: CYP inhibition, human liver microsomes; settings: 10 µM
Sequence of CYP2C19 (P33261 whole entry): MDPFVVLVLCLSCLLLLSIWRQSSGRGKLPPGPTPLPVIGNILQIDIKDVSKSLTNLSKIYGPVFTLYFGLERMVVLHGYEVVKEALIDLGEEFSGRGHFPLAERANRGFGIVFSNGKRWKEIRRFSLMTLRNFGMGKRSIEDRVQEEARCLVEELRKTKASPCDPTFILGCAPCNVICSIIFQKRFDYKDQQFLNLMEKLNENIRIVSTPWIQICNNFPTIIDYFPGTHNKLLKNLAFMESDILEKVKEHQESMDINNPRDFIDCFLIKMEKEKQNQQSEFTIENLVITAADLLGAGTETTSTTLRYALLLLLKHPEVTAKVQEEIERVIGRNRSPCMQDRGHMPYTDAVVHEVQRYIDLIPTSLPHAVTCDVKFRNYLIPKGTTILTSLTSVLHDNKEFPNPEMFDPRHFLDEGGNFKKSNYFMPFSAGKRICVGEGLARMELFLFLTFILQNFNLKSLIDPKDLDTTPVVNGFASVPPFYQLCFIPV

[4] = Stability in physiological solutions; type: physicochemical; settings: artificial gastric juice, simulated intestinal fluid, PBS, human plasma; 6 h at 37 °C
Description: (§1) SC81458 and SC83288 were soluble in water (890 and 940 μg ml^−1, respectively) and organic solvents. […] The compounds were stable in different physiological solutions, including artificial gastric juice, simulated intestinal fluid, phosphate-buffered saline and human plasma, when incubated for 6 h at 37 °C.

[5] = system: late stage (IV and V) gametocytes, NF54^Pfs16; test: Gametocytocidal activity, luciferase assay; type: cell-based; settings: Plasmodium falciparum, 72 h
Description: Activity against early- and late-stage gametocytes was determined in miniaturized 384-wells plate assays as previously described. Briefly, gametocytes from a recombinant line NF54^Pfs16, expressing a green fluorescent protein–luciferase reporter gene under the gametocyte-specific Pfs16 promoter were induced and purified as previously described; gametocytes were then treated either on day 1 (stage I gametocytes) or day 8 of gametocytogenesis (stage IV gametocytes) with serially diluted SC81458 or SC83288 to achieve a final top concentration of 40 μM (0.4% dimethylsulphoxide(DMSO)). After 72 h of incubation, gametocyte inhibition was assessed by luminometry, after addition of Steadylite plus luciferase detection kit (PerkinElmer) to the plate wells[58][59].

[6] = Solubility in phosphate buffer; type: physicochemical
Description: as §1

[7] = system: P. falciparum strain NF54; test: Growth inhibition assay; type: cell-based; settings: Plasmodium falciparum
5-HT1B = target: T12, 5-HT1B (Rattus norvegicus, UniProt P28564); test: Radioligand binding
T12 construct: Cerep (contract screening)
T12 sequence (P28564 whole entry): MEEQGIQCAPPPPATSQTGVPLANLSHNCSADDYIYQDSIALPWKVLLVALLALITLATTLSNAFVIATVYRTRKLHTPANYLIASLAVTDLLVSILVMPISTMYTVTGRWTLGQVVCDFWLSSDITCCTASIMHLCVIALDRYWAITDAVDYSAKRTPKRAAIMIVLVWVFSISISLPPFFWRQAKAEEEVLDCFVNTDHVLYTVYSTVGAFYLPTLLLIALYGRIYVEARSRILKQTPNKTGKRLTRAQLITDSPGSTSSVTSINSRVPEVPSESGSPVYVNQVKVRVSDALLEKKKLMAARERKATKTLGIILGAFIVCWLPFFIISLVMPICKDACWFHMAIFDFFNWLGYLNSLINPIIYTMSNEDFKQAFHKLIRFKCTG

[8] = CYP3A4a, midazolam to 1'-OH-midazolam
[9] = CYP3A4b, testosterone to 6β-OH-testosterone
[10] = CYP3A4c, omeprazole to omeprazole sulphone
[11] = CYP3A4d, omeprazole to 3-OH-omeprazole
[12] = CYP2C19a, omeprazole to 5-OH-omeprazole
[13] = CYP2C19b, omeprazole to desmethylomeprazole

T1 sequence (P21554 whole entry): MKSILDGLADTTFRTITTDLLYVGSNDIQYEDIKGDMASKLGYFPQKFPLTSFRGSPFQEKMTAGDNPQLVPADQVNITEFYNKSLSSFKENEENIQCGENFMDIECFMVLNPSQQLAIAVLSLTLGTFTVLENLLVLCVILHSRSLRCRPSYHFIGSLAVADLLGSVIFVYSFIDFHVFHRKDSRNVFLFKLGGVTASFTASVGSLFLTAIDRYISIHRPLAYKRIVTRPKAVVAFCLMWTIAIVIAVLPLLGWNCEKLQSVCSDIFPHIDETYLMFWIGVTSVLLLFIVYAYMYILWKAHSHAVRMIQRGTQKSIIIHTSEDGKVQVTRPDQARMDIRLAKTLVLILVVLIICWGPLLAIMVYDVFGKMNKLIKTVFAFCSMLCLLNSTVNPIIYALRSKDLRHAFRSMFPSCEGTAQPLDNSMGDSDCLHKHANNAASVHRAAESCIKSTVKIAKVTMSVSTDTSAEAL

CCCCN1CCN(C(=N)c2cccc(NC(=O)Nc3ccc(S(=O)(=O)NCc4ccc(S(N)(=O)=O)cc4)cc3)c2)CC1 [SC81458, 4-(3-(3-((4-butylpiperazin-1-yl)(imino)methyl)phenyl)ureido)-N-(4-sulfamoylbenzyl) benzenesulfonamide]
Inhibition of control specific binding (CB1 (h)): 21% | effect on cytoplasmic free Ca^2+ [1]: did not affect | Inhibition of control specific binding (GABA (non-selective)): 14% | Inhibition of control specific binding (ETA (h)): 1% | Inhibition of control specific binding (CCR1 (h)): -13% | Inhibition of control specific binding (5-HT2A (h)): 17% | Inhibition of control specific binding (AT1 (h)): 11% | Inhibition of control specific binding (5-HT5a (h)): 1% | IC50 (P. falciparum strain K1): 9 ± 3 nM | mutagenic or clastogenic activity, in vitro micronucleus assay [2]: no signs | Remaining enzyme activity (CYP3A4; [8]): 74% | Remaining enzyme activity (CYP3A4; [9]): 77% | Remaining enzyme activity (CYP3A4; [10]): 66% | Remaining enzyme activity (CYP3A4; [11]): 98% | Papp at 2 h, 10 μM (Permeability assay): 0.76 ×10⁻⁶ cm/s | Remaining enzyme activity (CYP2A6): 98% | Inhibition of control specific binding (A2A (h)): 5% | IC50 [3]: 13 ± 8 nM | Inhibition of control specific binding (H1 (h)): 6% | Inhibition of control specific binding (VPAC1 (VIP1) (h)): -4% | Remaining enzyme activity (CYP2E1): 106% | Inhibition of control specific binding (m (MOP) (h)): 24% | Inhibition of control specific binding (b1 (h)): -2% | Remaining enzyme activity (CYP2C19; [12]): 87% | Remaining enzyme activity (CYP2C19; [13]): 89% | stability in physiological solutions [4]: stable | IC50 [5]: 1800 ± 200 nM | solubility ([6]; pH 4, aqueous buffer): 1800 µM (≈ 1130 µg/mL) | solubility ([6]; pH 9, aqueous buffer): 400 µM (≈ 251 µg/mL) | IC50 [7]: 0.4 ± 0.05 nM | Inhibition of control specific binding (5-HT1B): -3%

COC(=O)N1CCN(C(=N)c2cccc(NC(=O)Nc3ccc(S(=O)(=O)NCc4ccc(S(N)(=O)=O)cc4)cc3)c2)CC1 [SC83288, methyl 4-(imino(3-(3-(4-(N-(4-sulfamoylbenzyl)sulfamoyl)phenyl)ureido)phenyl)methyl) piperazine-1-carboxylate]
Inhibition of control specific binding (CB1 (h)): 1% | effect on cytoplasmic free Ca^2+ [1]: did not affect | Inhibition of control specific binding (GABA (non-selective)): 6% | Inhibition of control specific binding (ETA (h)): 0% | Inhibition of control specific binding (CCR1 (h)): -2% | Inhibition of control specific binding (5-HT2A (h)): 30% | Inhibition of control specific binding (AT1 (h)): 6% | Inhibition of control specific binding (5-HT5a (h)): 16% | IC50 (P. falciparum strain K1): 5 ± 1 nM | mutagenic or clastogenic activity, in vitro micronucleus assay [2]: no signs | Remaining enzyme activity (CYP3A4; [8]): 92% | Remaining enzyme activity (CYP3A4; [9]): 88% | Remaining enzyme activity (CYP3A4; [10]): 87% | Remaining enzyme activity (CYP3A4; [11]): 92% | Papp at 2 h, 10 μM (Permeability assay): 0.42 ×10⁻⁶ cm/s | Remaining enzyme activity (CYP2A6): 101% | Inhibition of control specific binding (A2A (h)): 13% | IC50 [3]: 6 ± 1 nM | Inhibition of control specific binding (H1 (h)): 8% | Inhibition of control specific binding (VPAC1 (VIP1) (h)): -5% | Remaining enzyme activity (CYP2E1): 68% | inhibition at 20 min, 10 µM (CYP2E1; human, pooled liver microsomes, pH 7.4, probe chlorzoxazone (10 μM)): 30% | Inhibition of control specific binding (m (MOP) (h)): 25% | Inhibition of control specific binding (b1 (h)): 7% | Remaining enzyme activity (CYP2C19; [12]): 104% | Remaining enzyme activity (CYP2C19; [13]): 96% | stability in physiological solutions [4]: stable | IC50 [5]: > 30000 nM | solubility ([6]; pH 4, aqueous buffer): 2600 µM (≈ 1640 µg/mL) | solubility ([6]; pH 9, aqueous buffer): 800 µM (≈ 504 µg/mL) | IC50 [7]: 2 ± 1 nM | Inhibition of control specific binding (5-HT1B): 6%
